From patent US8101663B2, “Polymorphs of suberoylanilide hydroxamic acid” (Merck HDAC Research, LLC, priority 2002, dated 2012)
Values joined by “and” are separate entries in the source; they are usually repeats but may differ in a detail not shown here. Equal values may be shown once.

Experiments:
[1] = format: in vivo, patients; conditions: once a day, continuous
Excerpt: (§1) In another experiment, twenty-five patients with solid tumors have been enrolled onto arm A, thirteen patients with Hodgkin's or non-Hodgkin's lymphomas have been enrolled onto arm B, and one patient with acute leukemia and one patient with myelodysplastic syndrome have been enrolled onto arm C, as shown in Table 4.
Among eleven patients treated in Cohort II, one patient experienced the DLT of grade 3 diarrhea and grade 3 dehydration during the first treatment cycle. Nine patients were entered into Cohort III. Two patients were inevaluable for the 28-day toxicity assessment because of early study termination due to rapid progression of disease. Of the seven remaining patients, five experienced DLT during the first treatment cycle: diarrhea/dehydration (n=1), fatigue/dehydration (n=1), anorexia (n=1), dehydration (n=1) and anorexia/dehydration (n=1). These five patients recovered in approximately one week after the study drug was held. They were subsequently dose reduced to 400 mg QD which appeared to be well tolerated. The median days on 400 mg BID for all patients in Cohort III was 21 days. […] Following protocol amendment, accrual was continued in cohort IV at a dose of 600 mg once a day. Of the seven patients enrolled onto cohort IV, two were inevaluable for the 28-day toxicity assessment because of early study termination due to rapid progression of disease. […]

[2] = Serum plasma levels of SAHA after IV and oral dosing (HPLC assay, LCMS using a deuterated standard); format: in vivo, humans; conditions: human
Description: Objectives: To define a safe daily oral regimen of SAHA that can be used in Phase II studies. In addition, the pharmacokinetic profile of the oral formulation of SAHA was be evaluated. The oral bioavailability of SAHA in humans in the fasting vs. non-fasting state and anti-tumor effects of treatment were also monitored. Additionally, the biological effects of SAHA on normal tissues and tumor cells were assessed and responses with respect to levels of histone acetylation were documented.
Patients: Patients with histologically documented advanced stage, primary or metastatic adult solid tumors that are refractory to standard therapy or for which no curative standard therapy exists. Patients must have a Karnofsky Performance Status of ≧70%, and adequate hematologic, hepatic and renal function. Patients must be at least four weeks from any prior chemotherapy, radiation therapy or other investigational anticancer drugs.
Dosing Schedule: On the first day, patients were first treated with 200 mg of intravenously-administered SAHA. Starting on the second day, patients were treated with daily doses of oral SAHA according to Table 1. Each cohort received a different dose of SAHA. “QD” indicates dosing once a day; “Q12 hours” indicates dosing twice a day. For example, patients in Cohort IV received […] of SAHA per day. Doses were administered to patients daily and continuously. Blood samples were taken on day one and on day 21 of oral treatment. Patients were taken off oral SAHA treatment due to disease progression, tumor regression, unacceptable side effects, or treatment with other therapies.
Cmax is the maximum concentration of SAHA observed after administration. IV SAHA was administered at 200 mg infused over two hours. The oral SAHA was administered in a single capsule at 200 mg. Tables 2 and 3 summarize the results of an HPLC assay (LCMS using a deuterated standard) that quantitates the amount of SAHA in the blood plasma of the patients versus time, using acetylated histone-4 (α-AcH4) as a marker.

[3] = Interim pharmacokinetic analysis of oral SAHA, dose escalation study; format: in vivo, patients
Description: as §1
The interim pharmacokinetic analysis was based on 18 patients treated on the dose levels of 200 mg QD, 400 mg QD, and 400 mg BID. […] Overall, the fraction of AUCinf due to extrapolation was 1% or less.

[4] = tested on: solid tumors, Hodgkin's or non-Hodgkin's lymphomas, leukemia; test: Anti-tumor response in patients on oral SAHA; format: in vivo
Excerpt: as §1
Thirteen patients continued treatment for 3-12 months with responding or stable disease: thyroid (n=3), sweat gland (n=1), renal (n=2), larynx (n=1), prostate (n=1), Hodgkin's lymphoma (n=2), non-Hodgkin's lymphoma (n=2), and leukemia (n=1).
Six patients had tumor shrinkage on CT scans. Three of these six patients meet the criteria of partial response (one patient with metastatic laryngeal cancer and two patients with non-Hodgkin's lymphomas). These partial responses occurred at the dose levels of 400 mg BID (n=2) and 600 mg QD (n=1).

[5] = tested on: carcinogen-induced (N-methylnitrosourea) mammary tumors; conditions: rats, SAHA in the diet over 130 days; cited from earlier work
[6] = tested on: acetylated histones in peripheral mononuclear cells; test: Histone acetylation in peripheral blood mononuclear cells after SAHA capsules (anti-acetylated histone H3 antibody); format: in vivo, patients; conditions: 400 mg per day dose level, preliminary analysis
Description: Peripheral blood mononuclear cells were collected pre-therapy, immediately post-infusion and between 2-10 hours after oral ingestion of the SAHA capsules to assess the effect of SAHA on the extent of histone acetylation in a normal host cell. Histones were isolated and probed with anti-acetylated histone (H3) antibody followed by HRP-secondary antibody.

[7] = tested on: murine erythroleukemia cells (MELC); conditions: without continuing drug exposure; cited from earlier work
[8] = iv, 200 mg, Patient #1, IV, 200 mg infused over two hours
[9] = iv, 200 mg, Patient #2, IV, 200 mg infused over two hours
[10] = po, 200 mg, Patient #1, oral (fasting), single capsule 200 mg
[11] = po, 200 mg, Patient #1, oral (nonfasting), single capsule 200 mg
[12] = po, 200 mg, Patient #2, oral (fasting), single capsule 200 mg
[13] = po, 200 mg, Patient #2, oral (nonfasting), single capsule 200 mg

## O=C(CCCCCCC(=O)Nc1ccccc1)NO [SAHA, suberoylanilide hydroxamic acid]
[1]
  Maximally tolerated dose for once daily oral administration: 400 mg
[2]; Patient #2, oral (fasting), single capsule 200 mg
  half-life: 1.37 h
[2]; [8]
  AUC: 2550 ng·h/mL
  Cmax: 1330 ng/mL
  half-life: 0.333 h
[2]; [9]
  AUC: 1800 ng·h/mL
  Cmax: 1000 ng/mL
  half-life: 0.35 h
[2]; [10]
  AUC: 417 ng·h/mL
  Cmax: 225 ng/mL
  half-life: 1.33 h
[2]; [11]
  AUC: 983 ng·h/mL
  Cmax: 328 ng/mL
  half-life: 1.07 h
[2]; [12]
  AUC: 1050 ng·h/mL
  Cmax: 362 ng/mL
[2]; [13]
  AUC: 998 ng·h/mL
  Cmax: 302 ng/mL
  half-life: 1.55 h
[3]; human, plasma, calculated from the AUCinf values after the IV infusion and oral routes, read-out: Bioavailable fraction of SAHA
  bioavailability: ~48%
[3]; human, plasma, oral, across dose groups 200 mg QD, 400 mg QD, 400 mg BID, fasting or with food, 18 patients, read-out: Mean estimates for apparent half-life
  half-life: 1.02 to 1.9 h
[3]; human, plasma, oral, dose levels 200 mg QD, 400 mg QD, 400 mg BID, 18 patients, read-out: Mean estimates of Cmax
  Cmax: 233 ng/mL to 570 ng/mL and 880 nM to 2.3 µM
[3]; oral, fasting or with food, 200 mg to 400 mg dose range
  Dose dependence of mean estimates of Cmax and AUCinf: increased proportionally with dose
[4]; dose levels 400 mg BID (n=2) and 600 mg QD (n=1), laryngeal cancer, non-Hodgkin's lymphomas
  Patients meeting the criteria of partial response: Three
[4]; oral SAHA
  Patients with tumor shrinkage on CT scans: Six
[4]; oral SAHA, 40 patients enrolled
  Patients who continued treatment for 3-12 months with responding or stable disease: Thirteen
[5]
  Effect on development and continued growth of mammary tumors: effective at inhibiting the development and continued growth
[6]
  Time after ingestion up to which increased accumulation of acetylated histones could be detected: up to 10 hours

## CC(=O)NCCCCCCNC(C)=O [HMBA, N,N′-hexamethylene bisacetamide]
[7]
  Minimum duration of continuous exposure required to induce differentiation in a substantial portion (>20%) of the population: about 36 hours
